Source: ChEMBL document CHEMBL1201862, “PubChem BioAssay data set” (2004)
Calls of active or inactive are those of the source.

Columns and labels:
Melanocortin receptor 4 [1] = target: T1, Melanocortin receptor 4 (Homo sapiens, UniProt P32245); assay: MC4R antagonist potency on cAMP, dose response, cell-based, TR-FRET, biased antagonists (AID 602298); assay type: functional;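 further: antagonist potency against agonist-stimulated cAMP production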
[2] = nonselective inhibitors of cellular cAMP signaling, dose response, counter-screen for MC4R biased antagonist project, cell-based, TR-FRET cAMP detection (AID 602305); assay type: functional;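 further: U2OS cells stimulated with forskolin near its EC80 as the cAMP inducer; potency is for inhibition of forskolin-stimulated cAMP signaling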
[3] = target: T2, Polyadenylate-binding protein 1 (Homo sapiens, UniProt P11940); assay: PABP1 MLLE–PAM2 interaction inhibitors, dose response, miRNA deadenylation inhibitor project, biochemical, fluorescence polarization, Cy5-PAM2 peptide, secondary (AID 602260); assay type: functional; conditions: read-out: IC50_Mean
Melanocortin receptor 4 [4] = target: T1, Melanocortin receptor 4; assay type: functional, cell-based
[5] = target: T2, Polyadenylate-binding protein 1; assay: PABP1 MLLE–PAM2 binding inhibitor potency, dose response, biochemical, fluorescence polarization, FITC-PAM2 peptide (AID 602259); assay type: functional; conditions: read-out: IC50_Mean
[6] = target: T3, Methionyl-tRNA synthetase, putative (Trypanosoma brucei brucei, UniProt Q38C91); assay type: functional, Trypanosoma brucei brucei strain 927/4 GUTat10.1
T3 sequence (Q38C91 whole entry): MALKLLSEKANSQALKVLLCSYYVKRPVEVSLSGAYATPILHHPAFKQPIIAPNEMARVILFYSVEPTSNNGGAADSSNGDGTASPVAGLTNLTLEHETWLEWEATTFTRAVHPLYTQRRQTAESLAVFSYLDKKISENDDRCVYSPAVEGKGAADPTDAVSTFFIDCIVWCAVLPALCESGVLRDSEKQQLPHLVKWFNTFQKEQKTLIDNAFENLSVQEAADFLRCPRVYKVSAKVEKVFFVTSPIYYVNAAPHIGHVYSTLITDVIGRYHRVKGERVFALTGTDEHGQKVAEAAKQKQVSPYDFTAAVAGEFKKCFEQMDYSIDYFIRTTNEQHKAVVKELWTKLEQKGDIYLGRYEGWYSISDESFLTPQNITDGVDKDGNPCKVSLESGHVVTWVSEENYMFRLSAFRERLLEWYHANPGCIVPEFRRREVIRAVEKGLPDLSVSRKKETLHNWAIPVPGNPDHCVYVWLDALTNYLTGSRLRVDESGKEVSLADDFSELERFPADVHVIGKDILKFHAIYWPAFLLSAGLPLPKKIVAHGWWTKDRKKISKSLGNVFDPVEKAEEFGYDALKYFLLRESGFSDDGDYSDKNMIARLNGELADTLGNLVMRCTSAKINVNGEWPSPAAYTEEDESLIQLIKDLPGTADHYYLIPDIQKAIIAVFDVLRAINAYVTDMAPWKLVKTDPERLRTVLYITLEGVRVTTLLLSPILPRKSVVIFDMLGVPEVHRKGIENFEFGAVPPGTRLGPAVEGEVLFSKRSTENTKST

[7] = Counterscreen for inhibitors of Trypanosoma brucei methionyl tRNA synthetase (MetRS): Luminescence-based cell-based high throughput dose response assay to identify compounds that are cytotoxic to Jurkat human T lymphocyte cells.; assay type: functional
[8] = target: T3, Methionyl-tRNA synthetase, putative; assay type: functional, Trypanosoma brucei brucei strain 927/4 GUTat10.1; remark: listed apart in the source
HEK293 [9] = assay: cells; conditions: Homo sapiens
HEK293 [10] = assay: cells; conditions: Homo sapiens; remark: listed apart in the source
[11] = target: T4, Apoptotic protease-activating factor 1 (Homo sapiens, UniProt O14727); assay: SAR analysis of small molecule Activators of Apaf-1 in a Fluorescent assay.; assay type: functional; conditions: read-out: EC50_Mean;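 further: caspase-3 cleavage of fluorogenic Rh110 DEVD substrate downstream of apoptosome activation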
T4 sequence (O14727 whole entry): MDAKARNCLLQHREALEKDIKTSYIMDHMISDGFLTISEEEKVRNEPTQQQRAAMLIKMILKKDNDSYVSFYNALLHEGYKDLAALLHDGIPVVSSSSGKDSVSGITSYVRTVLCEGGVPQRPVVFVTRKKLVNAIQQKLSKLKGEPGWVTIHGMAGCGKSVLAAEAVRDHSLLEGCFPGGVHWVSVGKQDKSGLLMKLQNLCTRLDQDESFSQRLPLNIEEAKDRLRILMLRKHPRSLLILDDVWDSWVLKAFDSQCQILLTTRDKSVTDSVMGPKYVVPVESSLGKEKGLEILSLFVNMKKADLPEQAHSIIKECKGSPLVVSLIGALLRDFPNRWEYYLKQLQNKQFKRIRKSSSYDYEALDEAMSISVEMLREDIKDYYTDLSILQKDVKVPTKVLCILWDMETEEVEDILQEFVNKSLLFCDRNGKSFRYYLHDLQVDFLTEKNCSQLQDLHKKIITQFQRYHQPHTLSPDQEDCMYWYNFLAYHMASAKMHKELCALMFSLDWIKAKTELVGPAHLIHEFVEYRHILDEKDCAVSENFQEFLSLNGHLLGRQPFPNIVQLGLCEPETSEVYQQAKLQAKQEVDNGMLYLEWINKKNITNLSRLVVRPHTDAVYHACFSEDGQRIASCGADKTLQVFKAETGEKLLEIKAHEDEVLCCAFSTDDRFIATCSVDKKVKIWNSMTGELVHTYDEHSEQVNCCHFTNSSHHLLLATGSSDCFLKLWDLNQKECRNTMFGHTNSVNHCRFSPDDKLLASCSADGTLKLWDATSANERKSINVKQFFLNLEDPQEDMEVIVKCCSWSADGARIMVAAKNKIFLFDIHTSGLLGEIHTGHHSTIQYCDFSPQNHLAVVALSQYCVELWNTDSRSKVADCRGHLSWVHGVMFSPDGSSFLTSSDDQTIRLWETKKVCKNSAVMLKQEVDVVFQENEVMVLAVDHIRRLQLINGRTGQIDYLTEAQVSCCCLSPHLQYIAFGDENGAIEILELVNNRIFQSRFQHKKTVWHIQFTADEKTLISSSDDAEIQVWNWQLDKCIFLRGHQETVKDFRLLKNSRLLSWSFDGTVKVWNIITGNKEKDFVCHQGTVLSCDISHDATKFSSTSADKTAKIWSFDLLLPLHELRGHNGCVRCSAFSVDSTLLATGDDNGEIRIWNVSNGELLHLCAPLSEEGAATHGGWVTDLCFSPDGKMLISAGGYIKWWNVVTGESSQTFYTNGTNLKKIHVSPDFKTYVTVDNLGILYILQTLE

[12] = inhibitors of intracellular T. cruzi replication, confirmation, NIH3T3 host cells, beta-gal luminescence (AID 2044); assay type: functional, cell-based;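 further: intracellular parasites grown in NIH/3T3 mouse fibroblasts as host cells; luminescent beta-galactosidase reporter signal from transgenic T. cruzi replicating inside host cells; inhibitors lower the luminescence signal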
[13] = cytotoxicity toward NIH3T3 fibroblasts, dose response, counter-screen, cell-based, ATP luminescence, mouse fibroblasts (AID 2010); assay type: functional;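 further: cells exposed to compound for about 90 hours before reading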
[14] = target: T5, Heat shock factor protein 1 (Mus musculus, UniProt P38532); assay: HSF1 potentiators in luciferase reporter cells, confirmation, cell-based, NIH3T3, luminescence, dose retest (AID 435004); assay type: functional;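 further: stress induced by proteasome inhibitor MG132 added 30 min after compound; luciferase reporter driven by HSF1 response element in NIH3T3 cells; actives raise luminescence as potentiators of the MG132 stress response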
T5 sequence (P38532 whole entry): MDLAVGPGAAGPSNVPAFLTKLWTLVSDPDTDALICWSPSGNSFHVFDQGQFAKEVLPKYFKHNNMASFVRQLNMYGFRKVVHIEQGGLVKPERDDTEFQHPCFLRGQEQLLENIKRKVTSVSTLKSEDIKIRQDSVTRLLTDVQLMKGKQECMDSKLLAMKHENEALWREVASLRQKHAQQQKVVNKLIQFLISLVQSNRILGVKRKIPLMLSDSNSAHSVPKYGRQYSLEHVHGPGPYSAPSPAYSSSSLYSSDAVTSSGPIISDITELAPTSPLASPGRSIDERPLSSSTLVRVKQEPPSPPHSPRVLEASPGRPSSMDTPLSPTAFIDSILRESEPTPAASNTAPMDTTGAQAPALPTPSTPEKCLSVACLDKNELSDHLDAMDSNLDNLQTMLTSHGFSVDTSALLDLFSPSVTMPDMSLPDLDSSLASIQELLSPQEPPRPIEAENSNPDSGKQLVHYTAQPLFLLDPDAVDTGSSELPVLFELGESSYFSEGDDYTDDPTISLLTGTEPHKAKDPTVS

[15] = target: T6, Replicative DNA helicase DnaB (Mycobacterium tuberculosis, UniProt P9WMR3); assay: DnaB intein splicing inhibitors, dose response, biochemical, cell-free fluorescence (AID 449749); assay type: functional
T6 sequence (P9WMR3 whole entry): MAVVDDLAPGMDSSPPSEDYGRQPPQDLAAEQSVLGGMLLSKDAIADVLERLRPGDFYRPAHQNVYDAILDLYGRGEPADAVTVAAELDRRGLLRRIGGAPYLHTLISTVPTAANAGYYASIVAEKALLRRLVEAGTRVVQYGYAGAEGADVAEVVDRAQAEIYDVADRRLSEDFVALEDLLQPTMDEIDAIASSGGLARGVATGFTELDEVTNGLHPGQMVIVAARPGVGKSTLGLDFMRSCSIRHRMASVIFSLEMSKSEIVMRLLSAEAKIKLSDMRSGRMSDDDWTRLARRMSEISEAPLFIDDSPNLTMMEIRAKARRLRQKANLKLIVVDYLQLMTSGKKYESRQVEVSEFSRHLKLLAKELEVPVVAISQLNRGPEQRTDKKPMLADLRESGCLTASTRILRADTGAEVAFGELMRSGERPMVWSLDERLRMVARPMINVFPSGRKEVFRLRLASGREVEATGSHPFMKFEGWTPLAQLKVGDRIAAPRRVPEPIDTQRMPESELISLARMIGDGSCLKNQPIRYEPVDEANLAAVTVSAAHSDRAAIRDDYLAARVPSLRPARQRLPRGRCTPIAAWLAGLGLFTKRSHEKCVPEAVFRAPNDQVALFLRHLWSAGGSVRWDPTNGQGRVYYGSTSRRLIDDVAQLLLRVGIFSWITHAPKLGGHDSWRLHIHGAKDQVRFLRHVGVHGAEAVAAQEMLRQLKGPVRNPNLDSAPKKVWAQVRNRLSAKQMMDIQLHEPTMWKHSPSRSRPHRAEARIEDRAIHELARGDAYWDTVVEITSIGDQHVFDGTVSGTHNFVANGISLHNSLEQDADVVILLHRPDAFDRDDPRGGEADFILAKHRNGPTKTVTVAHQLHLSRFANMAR

Protein RecA = target: T7, Protein RecA (Mycobacterium tuberculosis, UniProt P9WHJ3); assay: Fluorescence Cell-Free Homogeneous Dose Retest to Identify Inhibitors of RecA-Intein Splicing Activity. [Related pubchem assays (depositor defined):AID2097, AID2223, AID489010, AID492950]; assay type: functional
T7 sequence (P9WHJ3 whole entry): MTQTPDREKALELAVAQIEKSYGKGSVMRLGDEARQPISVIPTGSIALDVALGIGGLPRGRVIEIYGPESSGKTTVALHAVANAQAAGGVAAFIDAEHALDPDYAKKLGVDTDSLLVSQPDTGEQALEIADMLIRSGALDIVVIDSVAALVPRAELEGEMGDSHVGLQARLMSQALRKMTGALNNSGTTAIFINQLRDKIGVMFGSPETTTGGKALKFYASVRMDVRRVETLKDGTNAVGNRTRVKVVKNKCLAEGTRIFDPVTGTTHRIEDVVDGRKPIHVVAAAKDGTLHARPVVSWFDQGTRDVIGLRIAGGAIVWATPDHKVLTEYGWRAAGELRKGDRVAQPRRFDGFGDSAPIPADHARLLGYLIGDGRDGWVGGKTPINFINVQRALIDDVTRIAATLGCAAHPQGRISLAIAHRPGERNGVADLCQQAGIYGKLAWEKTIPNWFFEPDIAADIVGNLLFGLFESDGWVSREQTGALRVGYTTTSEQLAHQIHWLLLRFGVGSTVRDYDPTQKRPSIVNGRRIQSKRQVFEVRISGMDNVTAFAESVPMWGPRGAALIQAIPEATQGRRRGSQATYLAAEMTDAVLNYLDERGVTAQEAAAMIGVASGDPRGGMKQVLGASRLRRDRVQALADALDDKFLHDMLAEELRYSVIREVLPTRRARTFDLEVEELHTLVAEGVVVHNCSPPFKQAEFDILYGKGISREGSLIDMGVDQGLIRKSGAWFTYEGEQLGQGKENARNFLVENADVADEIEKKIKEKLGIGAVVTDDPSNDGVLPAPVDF

Protein Wnt-3a = Protein Wnt-3a (Mus musculus, UniProt P27467); assay: Wnt3a-driven reporter signaling inhibition, dose response, selectivity assay for Gli-SUFU antagonist project, Wnt-LIGHT cells, luminescence (AID 651570); assay type: functional; conditions: read-out: IC50_Mean;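 further: Wnt-LIGHT reporter cells stimulated with conditioned medium from Wnt3a-producing cells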
[16] = AlphaScreen signal interference compounds, dose response, artefact control for ARNT-TACC3 interaction inhibitor project, biochemical, luminescence, cherry-pick (AID 651705); assay type: functional;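 further: AlphaScreen bead proximity signal that flags compounds interfering with the detection technology; potency reflects signal decrease which marks the compound as an assay artifact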
[17] = insulin promoter down-regulators in MIN6 cells, imaging, high-content screening, mouse beta cells (AID 1628); assay type: functional
[18] = cytotoxicity in MIN6 insulinoma cells, dose response, cytotoxicity control, cell-based, mouse insulinoma (AID 2122); assay type: functional;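 further: confirmatory high-throughput counterscreen run to flag cytotoxic compounds; mouse MIN-6 beta cells carrying an insulin promoter eGFP reporter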

T1 sequence (P32245 whole entry): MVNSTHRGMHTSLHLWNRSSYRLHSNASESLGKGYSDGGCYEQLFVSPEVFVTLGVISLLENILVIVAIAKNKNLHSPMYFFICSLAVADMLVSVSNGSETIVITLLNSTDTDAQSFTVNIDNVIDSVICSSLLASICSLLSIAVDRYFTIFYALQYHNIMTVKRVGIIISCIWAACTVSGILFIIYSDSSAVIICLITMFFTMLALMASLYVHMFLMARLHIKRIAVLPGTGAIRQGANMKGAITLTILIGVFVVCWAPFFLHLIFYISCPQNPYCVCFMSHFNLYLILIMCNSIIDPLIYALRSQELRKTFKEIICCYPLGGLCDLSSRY
Chain of Protein Wnt-3a (P27467 whole entry): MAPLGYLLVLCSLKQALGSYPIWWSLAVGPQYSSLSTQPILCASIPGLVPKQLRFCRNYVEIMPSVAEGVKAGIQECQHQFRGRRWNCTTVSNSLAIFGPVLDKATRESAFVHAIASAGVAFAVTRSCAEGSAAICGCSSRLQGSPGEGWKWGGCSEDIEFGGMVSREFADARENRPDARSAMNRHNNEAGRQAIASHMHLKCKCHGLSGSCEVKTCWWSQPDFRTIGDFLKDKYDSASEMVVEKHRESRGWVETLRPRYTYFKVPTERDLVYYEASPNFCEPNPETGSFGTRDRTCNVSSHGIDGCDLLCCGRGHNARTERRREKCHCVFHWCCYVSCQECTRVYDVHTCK
T2 sequence (P11940 whole entry): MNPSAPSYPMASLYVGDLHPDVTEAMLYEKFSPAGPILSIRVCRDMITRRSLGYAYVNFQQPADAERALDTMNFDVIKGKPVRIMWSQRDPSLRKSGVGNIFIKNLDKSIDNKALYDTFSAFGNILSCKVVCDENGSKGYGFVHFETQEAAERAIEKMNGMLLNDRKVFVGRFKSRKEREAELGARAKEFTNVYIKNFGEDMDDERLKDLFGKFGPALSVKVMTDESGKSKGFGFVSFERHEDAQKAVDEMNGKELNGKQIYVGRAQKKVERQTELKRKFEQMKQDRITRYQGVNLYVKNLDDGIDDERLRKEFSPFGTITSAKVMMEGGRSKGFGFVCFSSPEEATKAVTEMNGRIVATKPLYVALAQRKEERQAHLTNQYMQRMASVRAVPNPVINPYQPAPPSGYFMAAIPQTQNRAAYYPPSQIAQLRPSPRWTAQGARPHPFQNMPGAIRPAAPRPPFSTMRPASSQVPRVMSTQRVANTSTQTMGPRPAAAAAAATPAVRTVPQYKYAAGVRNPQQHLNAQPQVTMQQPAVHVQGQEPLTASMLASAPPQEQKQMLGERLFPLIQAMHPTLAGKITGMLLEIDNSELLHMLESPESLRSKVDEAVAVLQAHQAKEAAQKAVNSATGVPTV

## CC(C)N(c1ccccc1)c1ccc(NC(=O)COC(=O)CCN2C(=O)c3cccc([N+](=O)[O-])c3C2=O)cc1
Melanocortin receptor 4 [1]
  IC50: > 64.6 µM (inactive)
[2]
  IC50: > 64.6 µM (inactive)

## Cc1ccc(OCC(=O)NC(=S)Nc2cccc(NC(=O)c3ccccc3)c2)cc1
[3]
  IC50: > 66 µM (inactive)
Melanocortin receptor 4 [4]
  EC50: > 89.2 µM (inactive)
[5]
  IC50: > 66 µM (inactive)

## NC(Cc1ccc(Cl)cc1)c1csc(NC(=O)Nc2ccccc2)n1 (stereo unspecified)
Melanocortin receptor 4 [4]
  EC50: > 89.2 µM (inactive)
[6]
  IC50: 4.07 µM (active)
[7]
  IC50: 13.7 µM (inactive)
[8]
  IC50: 2.09 µM (active)
HEK293 [9]
  EC50: > 59.6 µM (inactive)
HEK293 [10]
  EC50: > 59.6 µM (inactive)

## COc1ccc(C)cc1NC(=O)CCS(=O)(=O)c1ccc2c(c1)NC(=O)CS2
[11]
  EC50: > 100 µM (inactive)

## O=C(CCl)c1ccc2c(c1)CCN2C(=O)C1CCCCC1
[12]
  EC50: 1.92 µM (active)
[13]
  EC50: 6.6 µM (active)
[14]
  EC50: 4.1 µM (inconclusive)
[15]
  AC50: 42.4 µM (active)
Protein RecA
  EC50: 4.08 µM (active)
Melanocortin receptor 4 [1]
  IC50: > 64.6 µM (inactive)
[2]
  IC50: > 64.6 µM (inactive)

## CC[N+](CC)(CC#Cc1ccccc1)CC#Cc1ccccc1
Protein Wnt-3a
  IC50: 35.2 µM (inactive)

## CC1CC1C(=O)Nc1nc(-c2ccccn2)cs1 (stereo unspecified)
[16]
  AC50: 82.6 µM (active)

## CCOC(=O)CSc1nnc(-c2ccc(NS(=O)(=O)c3ccc(C)cc3)cc2)o1
Melanocortin receptor 4 [1]
  IC50: > 64.6 µM (inactive)
[2]
  IC50: > 64.6 µM (inactive)

## C=CCNc1nc2c(c(=O)n(C)c(=O)n2C)n1Cc1ccc(F)cc1
[17]
  IC50: 1.13 µM (active)
[18]
  IC50: 892 nM (active)
Protein Wnt-3a
  IC50: 5.06 µM (active)
